Assay: Cell viability (MTT) assay on macrophages in primary culture
Assay type: cell-based
Conditions: Wistar, mouse, peritoneal macrophages in primary culture, concentrations 2.41 × 10^–4 to 2.41 mM, read-out: half cytotoxic concentration (IC50)
Description: The inflammatory response is part of the body’s first line of defence against a pathogen. Macrophages are one of the most studied inflammatory cells due to their high involvement in this inflammatory process. The recognition of an antigenic motif by a toll-like receptor on macrophages leads to a cascade of molecular signalling to the synthesis of pro-inflammatory mediators such as NO to eliminate the pathogen. First, the effect of the compounds on cell viability was assessed by measuring the cytotoxicity of the compounds in cell culture using the MTT assay at concentrations ranging from 2.41 × 10^–4 to 2.41 mM (figure 1).
Peritoneal macrophages were isolated from four eight-week-old, 25 g Wistar mice by intraperitoneal injection of 0.5 ml of 2% starch solution (inflammatory agent) to stimulate their production. Four days later, the animals were sacrificed, and 5 ml of phosphate buffered saline (PBS) buffer (0.1 M, pH 7.4) was injected into their peritoneal cavity with a syringe. […]
The effect of the solutions of synthetic compounds on the viability of macrophages in primary culture was determined by using the MTT as previously described in the literature. […] Finally, the absorbance of the purple solution was read at 630 nm against the acidified isopropanol solution. The percentage of cell viability was calculated using the following formula: […]

In the case of `CC(C)Cc1ccc(C(=O)OCCOC(=O)C(C)c2ccc(CC(C)C)cc2)cc1` (stereo not shown) [Compound 2, 2-((2-(4-isobutylphenyl)propanoyl)oxy)ethyl 4-isobutylbenzoate], the IC50 at 3 h is reported as 4.9 mM.
